Reference: patent US6218430A, “Vitamin D3 mimics” (Ligand Pharmaceuticals Incorporated, priority 1998, dated 2001)
pEC50, pIC50, pKi: −log10 of the molar value. “Also recorded” adds a separate entry of the source.

Legend:
serum DBP = assay: Serum DBP binding, rat or human serum, species not given; settings: rat (r) or human (h) serum DBP, not marked (r)/(h); competition with [3H]-25(OH)D3
Procedure: Serum DBP-binding. DPB competition binding assays were performed by a literature method (Dusso et al. 1991). The source of DBP was either human serum (Scantibodies) or rat serum (Gibco-BRL) diluted 1:10,000 in sodium phosphate buffer (pH 7.4). Sera were incubated for 2 h at 4° C. with 2 nM [^3 H]-25(OH)D3 (Amersham) with and withoun unlabeled 25(OH)D3 or 1,25(OH)2D3 (0.01 nM-1 μM), or unlabeled vitamin D mimic compounds (10 nM-10 μM). Bound ligand was separated from unbound ligand with Dextran-coated charcoal in gelatin-phosphate buffer.

HL60 cells = assay: Leukemic cell differentiation (NBT and CD14); format: cell-based; settings: Homo sapiens, HL-60, 120 h; NBT and CD14 assays; differentiation into macrophages/monocytes; 5 days
Procedure: Leukemic cell differentiation. […] Ligands were added in ethanol vehicle (1%) at various concentrations for 5 days without changing the media. On the fifth day, cells were harvested and assayed for markers of differentiation. […] Cells that bioreduce the dye turn blue-black and represent differentiated cells, and are counted. Undifferentiated cells are clear and are also counted; percent differentiated cells are then determined from the two numbers.

[1] = test system: LNCaP prostate cancer cells; assay: Prostate cancer cell growth inhibition (BrdU); format: cell-based; settings: Homo sapiens, 96 h, BrdU incorporation, 4-day assay
Procedure: (§1) Cancer cell growth inhibition and analysis. SK-BR-3 human breast cancer cells (ATCC) and LNCaP human prostate cancer cells (ATCC) were plated in 96-well, flat-bottomed microtiter plates (CoStar) with 50 μL serum-containing media/well. […] Cell plating numbers (cells/well) were as follows: SK-BR-3, 3000 (3-day assays); LNCAP, 1000 (4-day assays). Cell plating number was determined by growth rate of each cell line and duration of the assay. […] Cells were allowed to adhere for 24 h prior to compound addition as follows:
(§2) Ten-fold serial dilutions were performed with changing of pipette tips between each dilution. Diluted compounds were then added to the cells (50 μL/well) to final concentrations of 1×10^-5 -1×10^-11 M (1% ethanol) in triplicate. […] BrdU (5-bromo-2'-deoxyuridine) incorporation was analyzed as a measure of DNA replication (Cell Proliferation ELISA kit, Boehringer) and absorbance was measured at 450 nm.
(§3) One row of wells contained media only and these absorbance values were averaged as background and then subtracted from absorbance values from each individual well containing cells. The average values were then determined for each triplicate and plotted vs ligand concentration. The average vehicle (1% ethanol) value was determined, less the background average. […] Potency (EC50) was determined as the concentration of compound that elicited half-maximal response.

[2] = test system: SK-BR-3 breast cancer cells; assay: Breast cancer cell growth inhibition (BrdU); format: cell-based; settings: Homo sapiens, SK-BR-3, 72 h, BrdU incorporation, 3-day assay
Procedure: as §1, §2, §3

[3] = test system: Normal human epidermal keratinocytes (NHEK); assay: Keratinocyte growth inhibition (BrdU); format: cell-based; settings: 96 h, BrdU incorporation, day 4
Procedure: as §2, §3
Keratinocyte growth inhibition. Normal human epidermal keratinocytes (NHEK) were grown according to vendor specifications (Clonetics, San Diego). BrdU assays were performed as above except that cells were plated at 200 cells per well (96-well plates) and fresh media with ligands were added on day 0 and day 2; BrdU assays were run on day 4.

24(OH)ase = assay: In vivo gene regulation: kidney 24(OH)ase RNA induction (Northern blot); design: species or system mouse (Balb/c mice); settings: for Relative 24(OH)ase activity: oral gavage, vehicle 1, corrected with GAPDH
Procedure: (§4) In vivo gene regulation and calcium potential. Balb/c mice (male 6-8 weeks old, ~20 g) were fed a vitamin D deficient, calcium replete diet (Purina Mills) for 7-14 days prior to receiving treatment with compounds. Animals were housed under normal lighting. Compounds were administered in sesame oil vehicle with 4% ethanol by oral gavage (0.1 mL dose volume). […] On the final day of dosing, 4-6 h after the final dose, animals were euthanized, the kidneys removed and blood collected. Serum was prepared from the blood and calcium determination performed by colorimetric assay (Sigma). […] 15-20 μg total RNA was utilized in Northern blot analysis using rat 24(OH)ase probe; GAPDH probe was used to normalize for RNA loading, as described previously (Id). Quantitation was by PhosphorImager analysis.

[4] = In vivo calcium potential: serum calcium (colorimetric); design: species or system mouse (Balb/c mice); settings: oral gavage
Procedure: as §4

LNCaP tumor = assay: In vivo efficacy: LNCaP tumor growth in nude mice; design: species or system LNCaP human prostate cancer cells in nude mice
Procedure: (§5) In vivo efficacy. Nude mice (6 weeks old) were housed under normal light and fed a vitamin D deficient, calcium replete diet (Purina Mills) for 7-10 days prior to injection with LNCaP cells. Tumors were allowed to grow 2-4 weeks prior to dosing. Compounds or vehicle were administered in sesame oil by oral gavage (0.1 mL dose volume). Dosing was daily for the extent of the study. Tumor measurements were taken on days 10 and 15. Animals were then euthanized, and kidneys and blood retrieved. Serum calcium measurements were taken from the final bleed and an intermediate bleed on day 10. […] Average animal weight change per group was as follows: Vehicle, -7.2%; Compound 4 (3 mg/kg), -2.1%; Compound 4 (10 mg/kg), -8.9%.

[5] = Serum calcium in LNCaP tumor-bearing nude mice; format: in vivo; settings: 3 mg/kg and 10 mg/kg, days 10 and 15
Procedure: FIGS. 1A and 1B depict the In vivo efficacy of compound 4 in LNCaP tumor growth inhibition in nude mice without hypercalcemia.
as §5

[6] = Animal weight change in LNCaP tumor-bearing nude mice; format: in vivo; settings: vehicle -7.2%
Procedure: as §5

human VDR [7] = target: T1, human VDR (Homo sapiens, UniProt P11473); assay: biochemical
T1 sequence (P11473 1-427): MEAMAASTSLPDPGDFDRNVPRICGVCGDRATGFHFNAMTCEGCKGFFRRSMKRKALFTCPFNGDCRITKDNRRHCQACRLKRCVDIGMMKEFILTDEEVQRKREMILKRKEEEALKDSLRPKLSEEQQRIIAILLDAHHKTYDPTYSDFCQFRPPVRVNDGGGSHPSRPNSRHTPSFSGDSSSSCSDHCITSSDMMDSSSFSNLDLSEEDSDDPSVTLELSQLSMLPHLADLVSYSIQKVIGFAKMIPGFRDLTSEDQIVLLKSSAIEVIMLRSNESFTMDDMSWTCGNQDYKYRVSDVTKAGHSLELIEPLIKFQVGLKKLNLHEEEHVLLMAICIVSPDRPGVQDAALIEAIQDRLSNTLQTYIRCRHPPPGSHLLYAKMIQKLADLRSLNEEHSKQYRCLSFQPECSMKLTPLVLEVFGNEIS
Procedure: VDR binding. […] Cell extracts from yeast transformants were prepared and full length VDR expression was confirmed by Western blotting. […] Binding buffer contained 10 mM Tris,pH 7.5, 1 mM DTT, and 0.4 M KCl; wash buffer contained 10 mM Tris, 100 mM KCl, and 10 mM CHAPS detergent.

human VDR [8] = target: T1, human VDR; assay: Cotransactivation (CTF) in Hep G2 cells, VDRE-luciferase reporter; format: cell-based; design: expressed in transfected cells; host or cells: Hep G2 (human hepatoma, ATCC)
Procedure: Cotransactivation properties. […] Reporter and receptor containing vectors were transfected along with carrier DNA and β-galactosidase internal control plasmid as previously described except that Hep G2 cells were used (Id). Briefly, transfections were performed in triplicate in 96-well gelatin-coated plates with a total of 20 μg/mL DNA (0.5 μg receptor expression vector, 5 μg reported plasmid, 5 μg β-galactosidase plasmid, and pGEM carrier DNA to 20 μg) of calcium phosphate-HEPES transfection solution. […] Luciferase values were normalized with β-galactosidase values to control for variable transfection efficiencies.

Compound: Cc1cc(C2(c3ccc(OCC(=O)C(C)(C)C)c(C)c3)CCCCC2)ccc1OCC(=O)C(C)(C)C [Compound 4, 1,1-bis[3-methyl-4-(3,3-dimethyl-2-oxobutoxy)phenyl]cyclohexane]
- pIC50 (serum DBP): < 5.00
- pEC50 (HL60 cells): 5.70
- pEC50 [1]: 5.70
- pEC50 [2]: 5.70
- pEC50 [3]: 6.30
- Ratio 24(OH)ase/Ca2+ (24(OH)ase; 3-day treatment, 10 mg/kg): 1.48
- Ratio 24(OH)ase/Ca2+ increase (24(OH)ase; 3-day treatment, 10 mg/kg): 16.9
- Relative 24(OH)ase activity (24(OH)ase; 3-day treatment, 10 mg/kg): 13.5
- Ratio 24(OH)ase/Ca2+ (24(OH)ase; 3-day treatment, 30 mg/kg): 1.18
- Ratio 24(OH)ase/Ca2+ increase (24(OH)ase; 3-day treatment, 30 mg/kg): 15.1
- Relative 24(OH)ase activity (24(OH)ase; 3-day treatment, 30 mg/kg): 10.6
- Ratio 24(OH)ase/Ca2+ (24(OH)ase; 5-day treatment, 10 mg/kg): 3.38
- Ratio 24(OH)ase/Ca2+ increase (24(OH)ase; 5-day treatment, 10 mg/kg): 61.6
- Relative 24(OH)ase activity (24(OH)ase; 5-day treatment, 10 mg/kg): 30.8
- Ratio 24(OH)ase/Ca2+ (24(OH)ase; 5-day treatment, 30 mg/kg): 5.31
- Ratio 24(OH)ase/Ca2+ increase (24(OH)ase; 5-day treatment, 30 mg/kg): 35.8
- Relative 24(OH)ase activity (24(OH)ase; 5-day treatment, 30 mg/kg): 53.7
- separation of target gene induction from serum calcium (24(OH)ase; mice, vs 1,25(OH)2 D3): greater separation of these effects for 4 than for 1,25(OH)2 D3; also recorded: good separation of target gene regulation from serum calcium elevation
- Serum Ca2+ ([4]; 3-day treatment, 10 mg/kg): 9.1 ± 0.5 mg/dL
- Serum Ca2+ ([4]; 3-day treatment, 30 mg/kg): 9.0 ± 0.6 mg/dL
- Serum Ca2+ ([4]; 5-day treatment, 10 mg/kg): 9.1 ± 0.2 mg/dL
- Serum Ca2+ ([4]; 5-day treatment, 30 mg/kg): 10.1 ± 0.5 mg/dL
- tumor growth rate vs control group (LNCaP tumor; 3 mg/kg and 10 mg/kg oral gavage daily): decreased tumor growth rates as compared to the control group
- tumor size vs vehicle (FIG. 1A) (LNCaP tumor; 10 and 15 days post dosing): smaller
- serum calcium levels / hypercalcemia (FIG. 1B) [5]: hypercalcemia was not observed; also recorded: normal serum calcium levels
- Average animal weight change per group ([6]; 3 mg/kg): -2.1%
- Average animal weight change per group ([6]; 10 mg/kg): -8.9%
- pKi (human VDR [7]): < 5.00
- pEC50 (human VDR [8]): 5.66
